Experimental data from ChEMBL document CHEMBL1201862, “PubChem BioAssay data set” (2004).
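Five concentrations, 48 hours, 96-well plates. GI50 is the concentration that inhibits growth by half.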 Active and inactive are the calls of the source. Rule as the data show it: active = GI50 up to about 1.1 µM and inactive = higher.

Key:
Test in all cases: growth of human tumour cells (NCI), 48 h
SK-MEL-28 = tested on: SK-MEL-28
UO-31 = tested on: UO-31
HL-60 = tested on: HL-60
HOP-62 = tested on: HOP-62
K562 = tested on: K562
DMS-114 = tested on: DMS-114
HOP-92 = tested on: HOP-92
RPMI-8226 = tested on: RPMI-8226
SNB-75 = tested on: SNB-75
UACC-62 = tested on: UACC-62
M19-MEL = tested on: M19-MEL
COLO 205 = tested on: COLO 205
SW-620 = tested on: SW-620
HCT-15 = tested on: HCT-15
RXF 393 = tested on: RXF 393
NCI-H460 = tested on: NCI-H460
KM-20L2 = tested on: KM-20L2
MDA-MB-231 = tested on: MDA-MB-231
BT-549 = tested on: BT-549
T47D = tested on: T47D

SMILES	GI50 (SK-MEL-28)	GI50 (UO-31)	GI50 (HL-60)	GI50 (HOP-62)	GI50 (K562)	GI50 (DMS-114)	GI50 (HOP-92)	GI50 (RPMI-8226)	GI50 (SNB-75)	GI50 (UACC-62)	GI50 (M19-MEL)	GI50 (COLO 205)	GI50 (SW-620)	GI50 (HCT-15)	GI50 (RXF 393)	GI50 (NCI-H460)	GI50 (KM-20L2)	GI50 (MDA-MB-231)	GI50 (BT-549)	GI50 (T47D)
CC(=O)CN(Cc1cc(C)c2c(c1)c1ccccc1n2Cc1ccccc1)S(=O)(=O)c1ccc(C)cc1	> 100 µM (inactive)	57.7 µM (inactive)	> 100 µM (inactive)	> 100 µM (inactive)	> 100 µM (inactive)	> 100 µM (inactive)	> 100 µM (inactive)	> 100 µM (inactive)	> 100 µM (inactive)	> 100 µM (inactive)	> 100 µM (inactive)	> 100 µM (inactive)	> 100 µM (inactive)	–	–	–	–	–	–	–
Cc1c(C(=O)O)n(C)c(=O)n(C)c1=O	> 100 µM (inactive)	> 100 µM (inactive)	> 100 µM (inactive)	> 100 µM (inactive)	> 100 µM (inactive)	–	> 100 µM (inactive)	–	> 100 µM (inactive)	> 100 µM (inactive)	> 100 µM (inactive)	> 100 µM (inactive)	> 100 µM (inactive)	> 100 µM	> 100 µM (inactive)	> 100 µM (inactive)	> 100 µM (inactive)	–	–	–
Cc1coc2c1C(=O)C(=O)c1c-2ccc2c1CCCC2(C)C [TANSHINONE IIA]	2.15 µM (inactive)	2.33 µM (inactive)	1.07 µM (active)	1.95 µM (inactive)	0.875 µM (active)	–	> 70.5 µM (inactive)	1.94 µM (inactive)	3.41 µM (inactive)	1.63 µM (inactive)	–	8.07 µM (inactive)	2.42 µM (inactive)	0.673 µM	5.12 µM (inactive)	1.17 µM (inactive)	–	21.8 µM (inactive)	2.1 µM (inactive)	2.96 µM (inactive)
COc1cccc2c1C(=O)c1c(O)c3c(c(O)c1C2=O)C[C@@](O)(C(=O)CO)C[C@@H]3OC1CC2C(OCN3CN2COC2C(C)OC(O[C@H]4C[C@](O)(C(=O)CO)Cc5c(O)c6c(c(O)c54)C(=O)c4c(OC)cccc4C6=O)CC23)C(C)O1 (some centres undefined)	0.157 µM (active)	0.139 µM (active)	0.0258 µM (active)	0.04 µM (active)	0.0684 µM (active)	–	0.0308 µM (active)	0.0184 µM (active)	0.0151 µM (active)	0.0345 µM (active)	–	0.0614 µM (active)	0.0187 µM (active)	0.161 µM	0.0106 µM (active)	0.00433 µM (active)	–	0.0741 µM (active)	0.157 µM (active)	0.0167 µM (active)
COC(=O)c1c2c(cc3c1CC1(Cc4cc5c(c(C(C)=O)c4C1)CCC5)C3)CCC2 (centres undefined)	> 100 µM (inactive)	38 µM (inactive)	11.8 µM (inactive)	42 µM (inactive)	35.2 µM (inactive)	61.5 µM (inactive)	22.3 µM (inactive)	–	24.6 µM (inactive)	44.9 µM (inactive)	> 100 µM (inactive)	> 100 µM (inactive)	> 100 µM (inactive)	–	20.2 µM (inactive)	36.9 µM (inactive)	–	–	–	–
O=C1OCC(c2ccc(Cl)cc2)=C1Cl	49.9 µM (inactive)	18.1 µM (inactive)	19.8 µM (inactive)	22.9 µM (inactive)	28.2 µM (inactive)	–	31.9 µM (inactive)	23.8 µM (inactive)	> 100 µM (inactive)	18.7 µM (inactive)	–	24.4 µM (inactive)	25.4 µM (inactive)	29.9 µM	25.1 µM (inactive)	17.8 µM (inactive)	–	33.3 µM (inactive)	29.2 µM (inactive)	34.7 µM (inactive)
COc1ccc2c(c1)C(=O)CC(N)C2 (centres undefined)	> 100 µM (inactive)	40.6 µM (inactive)	62.7 µM (inactive)	> 100 µM (inactive)	> 100 µM (inactive)	–	> 100 µM (inactive)	> 100 µM (inactive)	25.1 µM (inactive)	68.5 µM (inactive)	–	> 100 µM (inactive)	> 100 µM (inactive)	> 100 µM	> 100 µM (inactive)	> 100 µM (inactive)	–	> 100 µM (inactive)	> 100 µM (inactive)	> 100 µM (inactive)
CC(NNC(=O)CC(=O)N(C(=O)c1ccccc1)c1ccc(Cl)cc1)c1cc2ccccc2oc1=O (centres undefined)	> 10 µM (inactive)	0.0995 µM (active)	> 10 µM (inactive)	> 10 µM (inactive)	> 10 µM (inactive)	–	> 10 µM (inactive)	> 10 µM (inactive)	> 10 µM (inactive)	> 10 µM (inactive)	–	> 10 µM (inactive)	> 10 µM (inactive)	> 10 µM	> 10 µM (inactive)	> 10 µM (inactive)	–	> 10 µM (inactive)	> 10 µM (inactive)	> 10 µM (inactive)
COc1ccc(/C=N/n2c(-c3ccccc3)n[nH]c2=O)c(OC)c1	> 100 µM (inactive)	24.4 µM (inactive)	> 100 µM (inactive)	29.8 µM (inactive)	> 100 µM (inactive)	–	36.5 µM (inactive)	> 100 µM (inactive)	27 µM (inactive)	43.9 µM (inactive)	–	> 100 µM (inactive)	> 100 µM (inactive)	> 100 µM	29.3 µM (inactive)	51.1 µM (inactive)	–	51.5 µM (inactive)	4.41 µM (inactive)	50 µM (inactive)
